Among the data in patent US4349562A, “Substituted 2-pyrrolidinones” (Hoffmann-La Roche Inc., priority 1978, dated 1982) are minimal effective dose and LD50 values, retold here.

In general, LD50 refers to the dose at which mortality reaches 50%.

In one data set the test system is untrained rats. As to the kind of experiment: Posthypercapnic "avoidance" acquisition (shuttle box). It counts as in vivo. The note with it: Rattus norvegicus, carbon dioxide 12 seconds, read-out: Minimum active dosage. On the procedure: (§1) The ability of the compounds of formula I to counteract experimentally produced cerebral insufficiency in mammals was determined by means of test procedures which are described hereinafter:
POSTHYPERCAPNIC "AVOIDANCE" ACQUISITION
The test apparatus is a "shuttle box" having a 10 cm high hurdle in the middle and an electrifiable grid floor. A loudspeaker is mounted in the soundproof chamber. One group of untrained rats (120-150 g.) is injected with a test preparation and a second group is injected with a control preparation. One or three hours after administration, each group is placed in a pure carbon dioxide environment for 12 seconds. A third group of 10 rats is treated neither with the test preparation nor with carbon dioxide. Three minutes after treatment with carbon dioxide the rats of all three groups must learn an escape response and an avoidance response in the "shuttle box" in the following sequence: 10 seconds silence, 5 seconds noise ("avoidance response"), 15 seconds noise+foot-shock ("escape response"). The sequence is repeated six times. For each of the six experiments the reaction time (time until the rat jumps over the hurdle) of each rat is measured and the statistical significance of the differences between the mean group reaction times is calculated by means of the Mann-Whitney U-test.

A short description of the next data set: Acute toxicity in mice. The note with it: mouse, in vivo, po. An excerpt:
The acute toxicities of the compounds of formula I in mice are as follows: […]

Another data set concerns untrained male rats. As to the kind of experiment: "Passive avoidance" test with electroshock amnesia. Conditions: Rattus norvegicus, ip, 3 h, i.p., electric shock, retention time after three hours, read-out: minimum active dosage. It counts as in vivo. As for the experimental part: as §1
"PASSIVE AVOIDANCE" TEST WITH ELECTROSHOCK AMNESIA
The test apparatus is a Skinner box having an electrifiable grid floor with a grey quadrangular platform in one corner. Untrained male rats weighing 100-200 g are placed on the platform. When the rats climb down onto the grid floor they receive an electric shock. […] Immediately after acquisition of the passive avoidance response three groups of 20 rats each are formed. One group receives an electric shock between the ears and i.p. injection of the test preparation. The second group receives an electric shock between the ears and an i.p. injection of sodium chloride. The third group receives only an i.p. injection of sodium chloride. After three hours, each rat is placed on the platform once and the retention time, that is, the time the rat remains on the platform (maximum 60 seconds), is measured. The significant activity of the test preparation in comparison to the two control groups is calculated by means of the Rang Test.

The subject of data set [1] is squirrel monkeys (Saimiri sciureus). As to the kind of experiment: Inhibition of haloperidol-induced "knock out" in a "continuous avoidance" test sequence. Conditions: in Primates, ip, before haloperidol 1.0 mg/kg p.o., delay in knock-out time, read-out: minimum active dosage. It counts as in vivo, squirrel monkey (Saimiri sciureus). On the procedure:
as §1
INHIBITION OF HALOPERIDOL-INDUCED "KNOCK OUT" IN A "CONTINUOUS AVOIDANCE" TEST SEQUENCE
Male, untrained squirrel monkeys (Saimiri sciureus), each weighing 0.6 to 1.2 kg, are trained in a two-lever Skinner box in the following "continuous avoidance" sequence: "avoidance-shock", interval 40 seconds; "shock-shock", interval 20 seconds; foot-shock, maximum 5 seconds. Monkeys having a normal baseline performance receive haloperidol 1.0 mg/kg p.o. to determine the "knock-out" time (blocking of "avoidance and escape"). Monkeys having stable "knock-out" times are selected for the evaluation of test preparations as a potential cerebral insufficiency improver. The test preparations can be injected at various times before the treatment with haloperidol.
A dosage of a test preparation is considered to be active, if the administration before the treatment with haloperidol, produces a significant delay in the "knock-out" time. The test preparation is administered at different times prior to treatment with haloperidol.

Like-named read-outs stand apart in the source and are kept apart here.

`COc1cccc(CN2CCCC2=O)c1` [m-Methoxybenzyl]: in the data set on untrained rats (ip, after 3 hours), the minimal effective dose came to 50 mg/kg. For the same molecule, the LD50 in the data set “Acute toxicity in mice” lay within 1250 to 2500 mg/kg.
For the molecule `COc1ccccc1C(=O)N1CCCC1=O` [o-Methoxybenzoyl], the minimal effective dose is 30 mg/kg with untrained rats (ip, after 1 hour) and 100 mg/kg in the data set on untrained rats (po, after 1 hour). Further, the 50% lethal dose (LD50) in the data set “Acute toxicity in mice” was 5000 mg/kg.
The corresponding values for `O=C1CCCN1Cc1ccc(F)cc1` [p-Fluorobenzyl] are 50 mg/kg, 300 mg/kg and 1000 to 2000 mg/kg.
As to `COc1ccc(CN2CCCC2=O)cc1` [p-Methoxybenzyl, 1-(p-methoxybenzyl)-2-pyrrolidinone], the minimal effective dose in the data set on untrained rats (ip, after 1 hour) turned out to be 10 mg/kg; in the data set with untrained rats (po, after 1 hour), 50 mg/kg; in the data set on untrained male rats it was 50 mg/kg; in data set [1] it was 1 mg/kg. Besides, in the data set “Acute toxicity in mice”, the LD50 is 2000 to 4000 mg/kg.
